# Results as given in ChEMBL document CHEMBL5291721, “A preclinical secondary pharmacology resource illuminates target-adverse drug reaction associations of marketed drugs” (Nat Commun, 2023).
# What was measured:
# D(3) dopamine receptor = D(3) dopamine receptor (Homo sapiens, UniProt P35462)
# D(1A) dopamine receptor = D(1A) dopamine receptor (Homo sapiens, UniProt P21728); type: functional, cell-based
# [1] = molecular target: T1, 5-hydroxytryptamine receptor 1A (Homo sapiens, UniProt P08908); type: functional, cell-based
# T1 sequence (P08908 whole entry): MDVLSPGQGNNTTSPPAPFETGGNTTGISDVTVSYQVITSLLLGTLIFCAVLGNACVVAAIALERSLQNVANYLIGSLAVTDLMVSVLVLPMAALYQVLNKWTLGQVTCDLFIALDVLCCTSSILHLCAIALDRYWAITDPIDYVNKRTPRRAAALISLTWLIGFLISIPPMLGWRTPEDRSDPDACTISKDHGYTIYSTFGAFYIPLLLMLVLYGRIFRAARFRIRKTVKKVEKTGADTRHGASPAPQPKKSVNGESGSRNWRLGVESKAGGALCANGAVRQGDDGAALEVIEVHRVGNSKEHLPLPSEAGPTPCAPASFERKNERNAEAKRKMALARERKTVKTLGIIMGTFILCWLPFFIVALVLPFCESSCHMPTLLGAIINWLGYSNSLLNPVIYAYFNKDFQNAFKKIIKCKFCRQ
# [2] = molecular target: Glutamate receptor ionotropic, NMDA 1 (Rattus norvegicus, UniProt P35439)
# [3] = molecular target: 5-hydroxytryptamine receptor 2B (Homo sapiens, UniProt P41595); type: functional, cell-based
# Sequence of 5-hydroxytryptamine receptor 2B (P41595 whole entry): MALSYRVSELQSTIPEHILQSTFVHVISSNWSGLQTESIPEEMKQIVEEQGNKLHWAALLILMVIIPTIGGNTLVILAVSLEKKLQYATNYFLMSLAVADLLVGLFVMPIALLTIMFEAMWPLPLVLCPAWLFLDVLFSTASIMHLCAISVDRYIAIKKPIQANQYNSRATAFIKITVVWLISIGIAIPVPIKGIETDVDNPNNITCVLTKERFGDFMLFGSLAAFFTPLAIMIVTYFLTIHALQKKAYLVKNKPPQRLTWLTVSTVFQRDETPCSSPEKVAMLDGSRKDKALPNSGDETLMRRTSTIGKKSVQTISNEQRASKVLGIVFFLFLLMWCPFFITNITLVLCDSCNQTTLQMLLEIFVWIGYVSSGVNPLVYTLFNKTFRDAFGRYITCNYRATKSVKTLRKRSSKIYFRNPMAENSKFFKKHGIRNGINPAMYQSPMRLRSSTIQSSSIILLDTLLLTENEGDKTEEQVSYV
# [4] = molecular target: 3',5'-cyclic-AMP phosphodiesterase 4D (Homo sapiens, UniProt Q08499); type: functional
# Sequence of 3',5'-cyclic-AMP phosphodiesterase 4D (Q08499 whole entry): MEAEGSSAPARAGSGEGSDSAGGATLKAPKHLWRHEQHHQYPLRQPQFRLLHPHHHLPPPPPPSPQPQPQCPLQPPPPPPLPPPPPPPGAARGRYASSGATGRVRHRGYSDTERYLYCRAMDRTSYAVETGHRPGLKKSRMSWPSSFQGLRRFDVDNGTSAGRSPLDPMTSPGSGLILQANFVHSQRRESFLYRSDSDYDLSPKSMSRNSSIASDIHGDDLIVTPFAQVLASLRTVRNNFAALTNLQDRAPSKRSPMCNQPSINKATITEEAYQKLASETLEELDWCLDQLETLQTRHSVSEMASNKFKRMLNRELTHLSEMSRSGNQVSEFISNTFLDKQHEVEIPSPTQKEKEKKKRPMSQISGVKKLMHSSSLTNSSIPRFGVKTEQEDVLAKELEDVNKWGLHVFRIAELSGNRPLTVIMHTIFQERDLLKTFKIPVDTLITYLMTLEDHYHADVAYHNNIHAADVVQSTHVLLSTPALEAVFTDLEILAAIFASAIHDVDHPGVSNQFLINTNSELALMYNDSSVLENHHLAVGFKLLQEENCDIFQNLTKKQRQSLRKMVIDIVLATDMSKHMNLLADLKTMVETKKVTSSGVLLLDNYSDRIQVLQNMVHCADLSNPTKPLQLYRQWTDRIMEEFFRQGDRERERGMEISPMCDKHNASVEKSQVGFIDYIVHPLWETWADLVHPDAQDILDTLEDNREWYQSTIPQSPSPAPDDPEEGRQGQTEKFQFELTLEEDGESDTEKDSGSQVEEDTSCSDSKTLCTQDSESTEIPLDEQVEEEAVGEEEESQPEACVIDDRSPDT
# [5] = molecular target: T2, Neuropeptide Y receptor type 1 (Homo sapiens, UniProt P25929)
# T2 sequence (P25929 whole entry): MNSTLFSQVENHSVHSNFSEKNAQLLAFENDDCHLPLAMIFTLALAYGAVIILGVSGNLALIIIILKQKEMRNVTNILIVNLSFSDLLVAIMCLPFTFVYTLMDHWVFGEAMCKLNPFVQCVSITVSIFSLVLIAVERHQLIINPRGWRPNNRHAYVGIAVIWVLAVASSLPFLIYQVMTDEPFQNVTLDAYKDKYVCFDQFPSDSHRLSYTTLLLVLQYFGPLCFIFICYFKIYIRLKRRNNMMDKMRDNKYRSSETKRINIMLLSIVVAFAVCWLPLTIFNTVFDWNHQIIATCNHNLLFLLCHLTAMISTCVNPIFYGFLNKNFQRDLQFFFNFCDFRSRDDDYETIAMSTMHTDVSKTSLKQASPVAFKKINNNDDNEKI
# Cannabinoid receptor 1 = Cannabinoid receptor 1 (Homo sapiens, UniProt P21554); type: functional, cell-based
# Sequence of Cannabinoid receptor 1 (P21554 whole entry): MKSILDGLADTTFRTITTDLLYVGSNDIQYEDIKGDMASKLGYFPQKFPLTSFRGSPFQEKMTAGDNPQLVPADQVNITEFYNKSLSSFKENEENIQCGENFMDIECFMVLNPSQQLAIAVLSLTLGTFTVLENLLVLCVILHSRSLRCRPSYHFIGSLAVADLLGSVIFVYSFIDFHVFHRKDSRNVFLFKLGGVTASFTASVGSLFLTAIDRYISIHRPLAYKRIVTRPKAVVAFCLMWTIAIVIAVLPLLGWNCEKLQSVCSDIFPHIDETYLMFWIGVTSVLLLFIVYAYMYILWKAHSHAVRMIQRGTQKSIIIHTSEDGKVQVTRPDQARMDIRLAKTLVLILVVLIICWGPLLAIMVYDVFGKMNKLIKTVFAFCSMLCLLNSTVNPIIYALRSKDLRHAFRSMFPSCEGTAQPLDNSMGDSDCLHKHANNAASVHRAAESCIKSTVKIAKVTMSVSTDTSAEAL
# Adenosine receptor A2a = Adenosine receptor A2a (Homo sapiens, UniProt P29274)
# Sequence of Adenosine receptor A2a (P29274 whole entry): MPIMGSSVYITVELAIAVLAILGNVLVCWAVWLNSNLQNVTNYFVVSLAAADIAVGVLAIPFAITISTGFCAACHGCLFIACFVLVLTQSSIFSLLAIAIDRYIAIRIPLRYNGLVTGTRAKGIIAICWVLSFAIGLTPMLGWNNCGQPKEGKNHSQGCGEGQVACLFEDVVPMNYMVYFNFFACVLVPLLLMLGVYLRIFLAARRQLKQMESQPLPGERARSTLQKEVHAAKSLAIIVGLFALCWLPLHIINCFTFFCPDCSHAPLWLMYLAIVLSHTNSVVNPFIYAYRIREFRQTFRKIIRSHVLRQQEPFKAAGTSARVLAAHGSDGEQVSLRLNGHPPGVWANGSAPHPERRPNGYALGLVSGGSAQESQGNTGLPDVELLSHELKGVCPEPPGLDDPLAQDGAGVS
# [6] = molecular target: T3, Alpha-2A adrenergic receptor (Homo sapiens, UniProt P08913); type: functional, cell-based
# T3 sequence (P08913 whole entry): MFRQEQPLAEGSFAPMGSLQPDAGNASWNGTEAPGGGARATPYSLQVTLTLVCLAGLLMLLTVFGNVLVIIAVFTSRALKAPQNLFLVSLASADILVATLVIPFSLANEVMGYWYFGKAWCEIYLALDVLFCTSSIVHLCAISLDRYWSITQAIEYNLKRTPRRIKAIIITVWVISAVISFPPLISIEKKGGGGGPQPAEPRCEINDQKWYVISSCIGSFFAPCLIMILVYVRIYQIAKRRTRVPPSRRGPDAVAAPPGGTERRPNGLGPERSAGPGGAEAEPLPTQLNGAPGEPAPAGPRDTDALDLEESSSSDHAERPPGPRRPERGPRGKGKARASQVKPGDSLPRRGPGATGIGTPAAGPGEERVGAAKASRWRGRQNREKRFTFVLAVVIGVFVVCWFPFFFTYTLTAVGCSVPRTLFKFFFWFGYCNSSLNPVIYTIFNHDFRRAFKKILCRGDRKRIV
# [7] = molecular target: Neuronal acetylcholine receptor subunit alpha-4 (Homo sapiens, UniProt P43681)
# Sequence of Neuronal acetylcholine receptor subunit alpha-4 (P43681 whole entry): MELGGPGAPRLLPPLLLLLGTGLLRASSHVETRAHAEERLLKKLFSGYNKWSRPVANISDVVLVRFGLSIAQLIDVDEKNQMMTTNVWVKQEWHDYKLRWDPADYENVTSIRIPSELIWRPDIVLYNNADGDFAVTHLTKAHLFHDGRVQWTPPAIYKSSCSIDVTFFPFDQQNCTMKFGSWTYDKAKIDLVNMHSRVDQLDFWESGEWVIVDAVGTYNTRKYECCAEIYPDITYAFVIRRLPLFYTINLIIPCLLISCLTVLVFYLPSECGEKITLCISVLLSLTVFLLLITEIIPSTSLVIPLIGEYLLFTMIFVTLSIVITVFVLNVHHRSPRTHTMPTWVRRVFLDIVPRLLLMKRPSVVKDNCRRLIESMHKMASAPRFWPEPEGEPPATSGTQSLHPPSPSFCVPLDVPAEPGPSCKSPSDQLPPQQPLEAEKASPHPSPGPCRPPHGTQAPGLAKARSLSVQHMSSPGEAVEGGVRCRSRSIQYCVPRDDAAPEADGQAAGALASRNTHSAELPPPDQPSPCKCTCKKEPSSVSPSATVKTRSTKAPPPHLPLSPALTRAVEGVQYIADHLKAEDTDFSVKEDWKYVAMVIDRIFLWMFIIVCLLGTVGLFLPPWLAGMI
# Estrogen receptor = molecular target: T4, Estrogen receptor (Homo sapiens, UniProt P03372)
# T4 sequence (P03372 whole entry): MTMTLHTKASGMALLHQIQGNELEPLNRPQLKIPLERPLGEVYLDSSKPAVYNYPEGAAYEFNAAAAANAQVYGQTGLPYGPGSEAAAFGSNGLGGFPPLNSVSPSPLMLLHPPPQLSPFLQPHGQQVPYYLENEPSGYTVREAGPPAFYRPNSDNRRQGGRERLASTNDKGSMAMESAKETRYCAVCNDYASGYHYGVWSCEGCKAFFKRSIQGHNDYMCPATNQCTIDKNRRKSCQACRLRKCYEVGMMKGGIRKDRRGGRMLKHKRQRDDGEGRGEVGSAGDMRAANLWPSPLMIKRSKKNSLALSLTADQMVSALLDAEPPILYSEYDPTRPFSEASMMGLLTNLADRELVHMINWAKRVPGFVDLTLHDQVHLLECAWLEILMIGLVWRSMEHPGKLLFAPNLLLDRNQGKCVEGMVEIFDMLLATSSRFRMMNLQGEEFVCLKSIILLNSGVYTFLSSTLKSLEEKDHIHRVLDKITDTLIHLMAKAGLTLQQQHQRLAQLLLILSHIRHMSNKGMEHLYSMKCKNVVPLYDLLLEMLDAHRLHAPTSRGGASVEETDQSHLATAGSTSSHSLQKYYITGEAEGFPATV
# [8] = molecular target: T5, Alpha-1A adrenergic receptor (Homo sapiens, UniProt P35348); type: functional, cell-based
# T5 sequence (P35348 whole entry): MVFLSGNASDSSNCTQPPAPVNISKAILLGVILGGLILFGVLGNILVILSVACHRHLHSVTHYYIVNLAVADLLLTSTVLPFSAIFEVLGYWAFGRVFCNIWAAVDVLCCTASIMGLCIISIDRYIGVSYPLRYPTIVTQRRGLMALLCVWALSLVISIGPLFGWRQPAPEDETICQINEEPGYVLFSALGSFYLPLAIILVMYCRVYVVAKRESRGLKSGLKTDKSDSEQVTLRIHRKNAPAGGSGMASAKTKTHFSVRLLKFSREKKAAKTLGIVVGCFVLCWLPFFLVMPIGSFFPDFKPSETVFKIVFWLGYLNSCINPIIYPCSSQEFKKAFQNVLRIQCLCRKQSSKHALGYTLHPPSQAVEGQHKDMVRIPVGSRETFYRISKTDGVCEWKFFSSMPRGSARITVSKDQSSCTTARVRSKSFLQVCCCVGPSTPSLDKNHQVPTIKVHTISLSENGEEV
# Note: assay procedure not described here.
# Sequence of D(1A) dopamine receptor (P21728 whole entry): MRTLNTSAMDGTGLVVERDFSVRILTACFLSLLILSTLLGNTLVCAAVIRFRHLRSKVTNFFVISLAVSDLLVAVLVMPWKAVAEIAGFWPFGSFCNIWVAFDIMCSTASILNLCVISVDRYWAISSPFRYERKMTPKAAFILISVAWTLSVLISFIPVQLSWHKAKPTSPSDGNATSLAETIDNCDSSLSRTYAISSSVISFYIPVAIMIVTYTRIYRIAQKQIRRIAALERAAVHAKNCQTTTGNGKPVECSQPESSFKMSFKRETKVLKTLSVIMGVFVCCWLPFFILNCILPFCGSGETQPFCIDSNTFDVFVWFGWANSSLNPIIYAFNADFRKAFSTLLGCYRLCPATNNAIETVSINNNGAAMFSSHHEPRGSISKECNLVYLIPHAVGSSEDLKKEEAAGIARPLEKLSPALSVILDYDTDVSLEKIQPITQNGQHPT
# Sequence of D(3) dopamine receptor (P35462 whole entry): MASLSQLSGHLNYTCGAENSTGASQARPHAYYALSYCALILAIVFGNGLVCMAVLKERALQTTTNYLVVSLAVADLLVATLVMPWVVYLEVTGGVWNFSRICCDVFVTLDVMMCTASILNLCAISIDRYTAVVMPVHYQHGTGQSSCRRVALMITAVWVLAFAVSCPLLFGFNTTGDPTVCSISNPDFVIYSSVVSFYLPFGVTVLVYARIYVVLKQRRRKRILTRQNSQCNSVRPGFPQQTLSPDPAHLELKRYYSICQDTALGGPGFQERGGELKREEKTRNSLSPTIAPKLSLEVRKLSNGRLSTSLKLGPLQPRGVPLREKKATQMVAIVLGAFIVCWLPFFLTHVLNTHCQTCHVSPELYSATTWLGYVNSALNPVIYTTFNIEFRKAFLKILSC
SMILES,AC50 (D(3) dopamine receptor),AC50 (D(1A) dopamine receptor),AC50 [1],AC50 [2],AC50 [3],AC50 [4],AC50 [5],AC50 (Cannabinoid receptor 1),AC50 (Adenosine receptor A2a),AC50 [6],AC50 [7],AC50 (Estrogen receptor),AC50 [8]
CC(=O)OCC(=O)[C@@]1(O)CC[C@H]2[C@@H]3CCC4=CC(=O)CC[C@]4(C)C3=CC[C@@]21C [ANECORTAVE ACETATE],> 30 µM,> 10 µM,> 10 µM,> 10 µM,> 10 µM,> 30 µM,> 10 µM,> 30 µM,> 10 µM,> 10 µM,> 10 µM,> 30 µM,> 30 µM
CCCC(C)(COC(N)=O)COC(=O)NC(C)C (stereo unspecified) [CARISOPRODOL],> 10 µM,> 10 µM,> 10 µM,> 10 µM,> 10 µM,> 30 µM,> 30 µM,> 30 µM,> 30 µM,> 10 µM,> 10 µM,> 30 µM,> 30 µM
Clc1ccc2c(c1)C(c1ccccc1)=NCc1nncn1-2 [ESTAZOLAM],> 30 µM,> 10 µM,> 10 µM,> 10 µM,> 10 µM,10 µM,> 30 µM,> 30 µM,> 30 µM,> 10 µM,> 10 µM,> 30 µM,> 30 µM
CC(=O)OCC(CCn1cnc2cnc(N)nc21)COC(C)=O [FAMCICLOVIR],> 10 µM,> 10 µM,> 10 µM,> 10 µM,> 10 µM,> 30 µM,> 30 µM,> 30 µM,> 30 µM,> 10 µM,> 10 µM,> 30 µM,> 30 µM
Nc1ccn([C@@H]2O[C@H](CO)[C@@H](O)C2(F)F)c(=O)n1 [GEMCITABINE],> 30 µM,> 10 µM,> 10 µM,> 10 µM,> 10 µM,16 µM,> 30 µM,> 30 µM,> 30 µM,> 10 µM,> 10 µM,> 30 µM,> 30 µM
COC1=C(OC)C(=O)C(CCCCCCCCCCO)=C(C)C1=O [IDEBENONE],> 10 µM,> 30 µM,> 10 µM,> 10 µM,> 10 µM,> 10 µM,> 30 µM,> 30 µM,> 30 µM,> 10 µM,> 10 µM,> 30 µM,> 30 µM
CC#CCn1c(N2CCC[C@@H](N)C2)nc2c1c(=O)n(Cc1nc(C)c3ccccc3n1)c(=O)n2C [LINAGLIPTIN],> 30 µM,,,> 10 µM,> 10 µM,> 10 µM,> 30 µM,,> 30 µM,> 10 µM,> 10 µM,> 30 µM,
CC(=O)Nc1c(I)c(C(=O)N[C@H]2C(O)O[C@H](CO)[C@@H](O)[C@@H]2O)c(I)c(N(C)C(C)=O)c1I (stereo partly specified) [METRIZAMIDE],> 30 µM,> 10 µM,> 10 µM,> 10 µM,> 10 µM,> 30 µM,> 10 µM,> 30 µM,> 10 µM,> 10 µM,> 10 µM,> 10 µM,> 30 µM
CCOC(=O)Nc1ccc2c(c1)N(C(=O)CCN1CCOCC1)c1ccccc1S2 [MORICIZINE],> 30 µM,> 30 µM,13 µM,> 30 µM,> 30 µM,0.77 µM,> 30 µM,> 30 µM,> 30 µM,> 30 µM,> 30 µM,> 30 µM,
O=C1CN=C(c2ccccc2)c2cc(Cl)ccc2N1 [NORDAZEPAM],> 10 µM,> 10 µM,> 10 µM,> 10 µM,> 10 µM,12 µM,> 30 µM,> 30 µM,> 30 µM,> 10 µM,> 10 µM,> 30 µM,
CC(CCc1ccccc1)NC(C)C(O)c1ccc(O)cc1 (stereo unspecified) [NYLIDRIN],1.3 µM,> 10 µM,> 10 µM,,6.9 µM,> 30 µM,> 30 µM,> 30 µM,> 30 µM,19 µM,> 10 µM,> 30 µM,
CC1(C)C(C=C(Cl)Cl)C1C(=O)OCc1cccc(Oc2ccccc2)c1 (stereo unspecified) [PERMETHRIN],> 30 µM,> 10 µM,> 10 µM,> 10 µM,> 10 µM,> 30 µM,> 10 µM,,> 10 µM,9.7 µM,> 10 µM,> 30 µM,
NC(=O)CCC/N=C(\c1ccc(Cl)cc1)c1cc(F)ccc1O [PROGABIDE],> 30 µM,> 10 µM,> 10 µM,> 10 µM,> 10 µM,> 10 µM,> 10 µM,,> 10 µM,> 10 µM,> 10 µM,> 10 µM,> 30 µM
C=CC(N)CCC(=O)O (stereo unspecified) [VIGABATRIN],> 30 µM,> 10 µM,> 10 µM,> 10 µM,> 10 µM,> 30 µM,> 10 µM,> 30 µM,> 10 µM,> 10 µM,> 10 µM,> 10 µM,> 30 µM
